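Assay format: 96-well plates, 48-hour exposure. GI50 marks 50% less growth. TGI denotes the concentration required for complete inhibition of growth.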
Experiments:
Experiment in all cases: NCI tumour cell line growth inhibition, 48 h
[1] = tested on: HL-60(TB) leukemia
[2] = tested on: HT29 colon
[3] = tested on: MDA-MB-468 breast
[4] = tested on: CAKI-1 renal
[5] = tested on: T-47D breast
[6] = tested on: NCI/ADR-RES ovarian
[7] = tested on: UACC-62 melanoma
[8] = tested on: SF-295 CNS
[9] = tested on: COLO 205 colon
[10] = tested on: SNB-19 CNS
[11] = tested on: MALME-3M melanoma
[12] = tested on: A498 renal
[13] = tested on: OVCAR-8 ovarian
[14] = tested on: SN12C renal
[15] = tested on: SK-MEL-28 melanoma
[16] = tested on: MDA-MB-231 breast
[17] = tested on: A549 NSCLC
[18] = tested on: HCC-2998 colon
[19] = tested on: SK-MEL-5 melanoma
[20] = tested on: NCI-H522 lung
[21] = tested on: U251 CNS
[22] = tested on: LOX IMVI melanoma
[23] = tested on: SR leukemia
[24] = tested on: EKVX NSCLC
[25] = tested on: MOLT-4 leukemia
[26] = tested on: MCF7 breast
[27] = tested on: PC-3 prostate
[28] = tested on: KM12 colon
[29] = tested on: K-562 leukemia
[30] = tested on: SK-OV-3 ovarian
[31] = tested on: OVCAR-5 ovarian
[32] = tested on: RPMI-8226 leukemia
[33] = tested on: SW-620 colon
[34] = tested on: CCRF-CEM leukemia
[35] = tested on: NCI-H23 lung
[36] = tested on: M14 melanoma
[37] = tested on: HOP-62 NSCLC
[38] = tested on: IGROV1 ovarian
[39] = tested on: SK-MEL-2 melanoma
[40] = tested on: BT-549 breast
[41] = tested on: OVCAR-3 ovarian
[42] = tested on: HCT-116 colon
[43] = tested on: ACHN renal
[44] = tested on: NCI-H226 lung
[45] = tested on: DU-145 prostate
[46] = tested on: SF-268 CNS
[47] = tested on: HCT-15 colon
[48] = tested on: NCI-H460 lung
[49] = tested on: MDA-MB-435
[50] = tested on: UO-31 renal
[51] = tested on: 786-0 renal
[52] = tested on: SNB-75 CNS
[53] = tested on: UACC-257 melanoma
[54] = tested on: TK-10 renal
[55] = tested on: OVCAR-4 ovarian
[56] = tested on: SF-539 CNS
[57] = tested on: HS 578T breast
[58] = tested on: HOP-92 NSCLC
[59] = tested on: RXF 393 renal

Compound: COc1ccc(/C=C/c2nc3ccccc3n3c(-c4cccc([N+](=O)[O-])c4)nnc23)cc1
- GI50 [1]: 1620 nM
- TGI [1]: 10900 nM
- GI50 [2]: 1120 nM
- TGI [2]: 2320 nM
- GI50 [3]: 1130 nM
- TGI [3]: 2850 nM
- GI50 [4]: 2470 nM
- TGI [4]: 10400 nM
- GI50 [5]: 3760 nM
- TGI [5]: 16100 nM
- GI50 [6]: 2100 nM
- TGI [6]: 6930 nM
- GI50 [7]: 1700 nM
- TGI [7]: 4300 nM
- GI50 [8]: 9610 nM
- TGI [8]: 21400 nM
- GI50 [9]: 1760 nM
- TGI [9]: 3660 nM
- GI50 [10]: 5840 nM
- TGI [10]: 18800 nM
- GI50 [11]: 581 nM
- TGI [11]: 1980 nM
- GI50 [12]: 12400 nM
- TGI [12]: 28100 nM
- GI50 [13]: 1750 nM
- TGI [13]: 4800 nM
- GI50 [14]: 1140 nM
- TGI [14]: 2360 nM
- GI50 [15]: 2190 nM
- TGI [15]: 4940 nM
- GI50 [16]: 1800 nM
- TGI [16]: 4550 nM
- GI50 [17]: 2650 nM
- TGI [17]: 11000 nM
- GI50 [18]: 2570 nM
- TGI [18]: 11300 nM
- GI50 [19]: 2060 nM
- TGI [19]: 5380 nM
- GI50 [20]: 120 nM
- TGI [20]: 258 nM
- GI50 [21]: 1520 nM
- TGI [21]: 3300 nM
- GI50 [22]: 148 nM
- TGI [22]: 289 nM
- GI50 [23]: 247 nM
- TGI [23]: 1360 nM
- GI50 [24]: 3860 nM
- TGI [24]: 14800 nM
- GI50 [25]: 1210 nM
- TGI [25]: 4100 nM
- GI50 [26]: 1830 nM
- TGI [26]: 10100 nM
- GI50 [27]: 3010 nM
- TGI [27]: 14500 nM
- GI50 [28]: 2620 nM
- TGI [28]: 10800 nM
- GI50 [29]: 307 nM
- TGI [29]: 2140 nM
- GI50 [30]: 5220 nM
- TGI [30]: 17600 nM
- GI50 [31]: 1770 nM
- TGI [31]: 3610 nM
- GI50 [32]: 1440 nM
- TGI [32]: 4030 nM
- GI50 [33]: 631 nM
- TGI [33]: 1870 nM
- GI50 [34]: 312 nM
- TGI [34]: 1150 nM
- GI50 [35]: 1510 nM
- TGI [35]: 3010 nM
- GI50 [36]: 760 nM
- TGI [36]: 2170 nM
- GI50 [37]: 5470 nM
- TGI [37]: 18200 nM
- GI50 [38]: 1890 nM
- TGI [38]: 3770 nM
- GI50 [39]: 2630 nM
- TGI [39]: 9090 nM
- GI50 [40]: 1380 nM
- TGI [40]: 2920 nM
- GI50 [41]: 1270 nM
- TGI [41]: 2610 nM
- GI50 [42]: 1080 nM
- TGI [42]: 2270 nM
- GI50 [43]: 1370 nM
- TGI [43]: 2660 nM
- GI50 [44]: 626 nM
- TGI [44]: 2490 nM
- GI50 [45]: 1610 nM
- TGI [45]: 4290 nM
- GI50 [46]: 2770 nM
- TGI [46]: 10200 nM
- GI50 [47]: 948 nM
- TGI [47]: 2250 nM
- GI50 [48]: 1690 nM
- TGI [48]: 4260 nM
- GI50 [49]: 1900 nM
- TGI [49]: 5650 nM
- GI50 [50]: 2000 nM
- TGI [50]: 8800 nM
- GI50 [51]: 1450 nM
- TGI [51]: 2760 nM
- GI50 [52]: 4120 nM
- TGI [52]: 15900 nM
- GI50 [53]: 3650 nM
- TGI [53]: 15000 nM
- GI50 [54]: 2870 nM
- TGI [54]: 9900 nM
- GI50 [55]: 1680 nM
- TGI [55]: 5320 nM
- GI50 [56]: 1440 nM
- TGI [56]: 2750 nM
- GI50 [57]: 3990 nM
- TGI [57]: 20700 nM
- GI50 [58]: 1910 nM
- TGI [58]: 4930 nM
- GI50 [59]: 1240 nM
- TGI [59]: 2550 nM
